Laboratory results: patent publication US9981963B2, “3-(1H-pyrazol-4-yl)-1H-pyrrolo[2,3-c]pyridine derivatives as NIK inhibitors” (Janssen Pharmaceutica NV, priority 2013, dated 2018)

Key:
[1] = target: T1, Recombinant Human NF-kappaB-inducing Kinase (NIK/MAP3K14) (Homo sapiens (Human), UniProt Q99558); assay: Biological Assay A: inhibition of recombinant human NIK/MAP3K14 activity (MSD, MBP substrate); conditions: 25 μM ATP, 10 nM NIK/MAP3K14, 1 h at 25° C.; averaged over all measurements on all batches; read-out: Biochemical (MSD MBP) IC50
Description: Inhibition of Recombinant Human NF-kappaB-inducing Kinase (NIK/MAP3K14) Activity
Assay buffer was 50 mM Tris pH 7.5 containing 1 mM EGTA (ethylene glycol tetraacetic acid), 1 mM DTT (dithiothreitol), 0.1 mM Na3VO4, 5 mM MgCl2, 0.01% Tween® 20. Assays were carried out in 384 well Mesoscale high binding plates which had been coated with myelin basic protein (MBP) and blocked with bovine serum albumin to prevent non-specific protein binding. All compounds tested were dissolved in dimethyl sulfoxide (DMSO) and further dilutions were made in assay buffer. Final DMSO concentration was 1% (v/v) in assays. Incubations consisted of compound (1% DMSO in control and blank wells), 25 μM Adenosine-5′-triphosphate (ATP), and 10 nM NIK/MAP3K14 substituting enzyme with buffer in the blank wells. Incubations were carried out for 1 h at 25° C. and were followed by washing and sequential incubation with rabbit anti-phospho-MBP and anti-rabbit Ig Sulfotag antibody before reading bound Sulfotag on a Mesoscale Discovery. Signal obtained in the wells containing blank samples was subtracted from all other wells and IC50's were determined by fitting a sigmoidal curve to % inhibition of control versus Log10 compound concentration.

[2] = target: T1, Recombinant Human NF-kappaB-inducing Kinase (NIK/MAP3K14); assay: Biological Assay A2: inhibition of auto-phosphorylation of recombinant human NIK/MAP3K14 (AlphaScreen); assay type: biochemical; conditions: 25 microM ATP, 0.2 nM GST-tagged NIK/MAP3K14, 1 h at 25° C., averaged values, read-out: Alpha-Screen IC50
Description: Inhibition of Auto-phosphorylation of Recombinant Human NF-kappaB-inducing Kinase (NIK/MAP3K14) Activity (AlphaScreen®)
NIK/MAP3K14 auto-phosphorylation activity was measured using the AlphaScreen® (αscreen) format (Perkin Elmer). All compounds tested were dissolved in dimethyl sulfoxide (DMSO) and further dilutions were made in assay buffer. Final DMSO concentration was 1% (v/v) in assays. Assay buffer was 50 mM Tris pH 7.5 containing 1 mM EGTA (ethylene glycol tetraacetic acid), 1 mM DTT (dithiothreitol), 0.1 mM Na3VO4, 5 mM MgCl2, 0.01% Tween® 20. Assays were carried out in 384 well Alphaplates (Perkin Elmer). Incubations consisted of compound, 25 microM Adenosine-5′-triphosphate (ATP), and 0.2 nM NIK/MAP3K14. Incubations were initiated by addition of GST-tagged NIK/MAP3K14 enzyme, carried out for 1 h at 25° C. and terminated by addition of stop buffer containing anti-phospho-IKK Ser176/180 antibody. Protein A Acceptor and Glutathione-Donor beads were added before reading using an EnVision® Multilabel Plate Reader (Perkin Elmer). Signal obtained in the wells containing blank samples was subtracted from all other wells and IC50's were determined by fitting a sigmoidal curve to % inhibition of control versus Log10 compound concentration.

[3] = test system: P-IKKα levels in L363 cells; assay: Biological Assay B: effect of compounds on P-IKKα levels in L363 cells; assay type: cell-based; conditions: Homo sapiens, L-363; L363 cells with BAFF, 2 hr treatment; averaged values; read-out: IKKα Cellular IC50
Description: Effect of Compounds on P-IKKα Levels in L363 Cells
All compounds tested were dissolved in DMSO and further dilutions were made in culture medium. Final DMSO concentration was 1% (v/v) in cell assays. The human L363 cells (ATCC) were cultured in RPMI 1640 medium supplemented with GlutaMax and 10% fetal calf serum (PAA). Cells were routinely maintained at densities of 0.2×10^6 cells per ml-1×10^6 cells per ml at 37° C. in a humidified 5% CO2 atmosphere. Cells were passaged twice a week splitting back to obtain the low density. Cells were seeded in 96 well plates (Nunc 167008) at 2×10^6 per ml media in a volume of 75 μl per well plus 25 μl 1 μg/ml recombinant human B-cell activating factor (BAFF/BLyS/TNFSF13B). Seeded cells were incubated at 37° C. in a humidified 5% CO2 atmosphere for 24 hr. Drugs and/or solvents were added (20 μl) to a final volume of 120 μl. Following 2 hr treatment plates were removed from the incubator and cell lysis was achieved by the addition of 30 μl 5× lysis buffer followed by shaking on a plate shaker at 4° C. for 10 min. At the end of this incubation lysed cells were centrifuged at 800×g for 20 min at 4° C. and the lysate was assessed for P-IKKα levels by sandwich immuno-assay carried out in anti-rabbit antibody coated Mesoscale plates. Within an experiment, the results for each treatment were the mean of 2 replicate wells. For initial screening purposes, compounds were tested using an 8 point dilution curve (serial 1:3 dilutions). For each experiment, controls (containing MG132 and BAFF but no test drug) and a blank incubation (containing MG132 and BAFF and 10 μM ADS125117, a test concentration known to give full inhibition) were run in parallel. The blank incubation value was subtracted from all control and sample values. To determine the IC50 a sigmoidal curve was fitted to the plot of % inhibition of control P-IKKα levels versus Log10 compound concentration.

[4] = test system: JJN-3 cells; assay: Biological Assay C: antiproliferative activity on JJN-3 cells (CellTiter-Glo); assay type: cell-based; conditions: Homo sapiens, 72 hr of treatment, averaged values
Description: (§1) Determination of Antiproliferative Activity on LP-1, L-363 and JJN-3 Cells
(§2) All compounds tested were dissolved in DMSO and further dilutions were made in culture medium. Final DMSO concentration was 0.3% (v/v) in cell proliferation assays. Viability was assessed using CellTiter-Glo cell viability assay kit (Promega). The human LP-1, L-363 and JJN-3 cells (DSMZ) were cultured in RPMI 1640 medium supplemented with 2 mM L-glutamine, and 10% fetal calf serum (PAA). Cells were routinely kept as suspension cells at 37° C. in a humidified 5% CO2 atmosphere. Cells were passaged at a seeding density of 0.2×10^6/ml twice a week. Cells were seeded in black tissue culture treated 96-well plates (Perkin Elmer). Densities used for plating ranged from 2,000 to 6,000 cells per well in a total volume of 75 μl medium. After twenty four hours, drugs and/or solvents were added (25 μl) to a final volume of 100 μl. Following 72 hr of treatment plates were removed from the incubator and allowed to equilibrate to room temperature for approx 10 min. 100 μl CellTiter-Glo reagent was added to each well that was then covered (Perkin Elmer Topseal) and shaken on plate shaker for 10 min. Luminescence was measured on a HTS Topcount (Perkin Elmer). Within an experiment, the results for each treatment were the mean of 2 replicate wells. For initial screening purposes, compounds were tested using a 9 point dilution curve (serial 1:3 dilutions). For each experiment, controls (containing no drug) and a blank incubation (containing cells read at the time of compound addition) were run in parallel. The blank value was subtracted from all control and sample values. For each sample, the mean value for cell growth (in relative light units) was expressed as a percentage of the mean value for cell growth of the control.

[5] = test system: L-363 cells; assay: Biological Assay C: antiproliferative activity on L-363 cells (CellTiter-Glo); assay type: cell-based; conditions: Homo sapiens, 72 hr of treatment, averaged values
Description: as §1, §2

[6] = test system: LP-1 cells; assay: Biological Assay C: antiproliferative activity on LP-1 cells (CellTiter-Glo); assay type: cell-based; conditions: Homo sapiens, 72 hr of treatment, averaged values
Description: as §1, §2

T1 sequence (Q99558 whole entry): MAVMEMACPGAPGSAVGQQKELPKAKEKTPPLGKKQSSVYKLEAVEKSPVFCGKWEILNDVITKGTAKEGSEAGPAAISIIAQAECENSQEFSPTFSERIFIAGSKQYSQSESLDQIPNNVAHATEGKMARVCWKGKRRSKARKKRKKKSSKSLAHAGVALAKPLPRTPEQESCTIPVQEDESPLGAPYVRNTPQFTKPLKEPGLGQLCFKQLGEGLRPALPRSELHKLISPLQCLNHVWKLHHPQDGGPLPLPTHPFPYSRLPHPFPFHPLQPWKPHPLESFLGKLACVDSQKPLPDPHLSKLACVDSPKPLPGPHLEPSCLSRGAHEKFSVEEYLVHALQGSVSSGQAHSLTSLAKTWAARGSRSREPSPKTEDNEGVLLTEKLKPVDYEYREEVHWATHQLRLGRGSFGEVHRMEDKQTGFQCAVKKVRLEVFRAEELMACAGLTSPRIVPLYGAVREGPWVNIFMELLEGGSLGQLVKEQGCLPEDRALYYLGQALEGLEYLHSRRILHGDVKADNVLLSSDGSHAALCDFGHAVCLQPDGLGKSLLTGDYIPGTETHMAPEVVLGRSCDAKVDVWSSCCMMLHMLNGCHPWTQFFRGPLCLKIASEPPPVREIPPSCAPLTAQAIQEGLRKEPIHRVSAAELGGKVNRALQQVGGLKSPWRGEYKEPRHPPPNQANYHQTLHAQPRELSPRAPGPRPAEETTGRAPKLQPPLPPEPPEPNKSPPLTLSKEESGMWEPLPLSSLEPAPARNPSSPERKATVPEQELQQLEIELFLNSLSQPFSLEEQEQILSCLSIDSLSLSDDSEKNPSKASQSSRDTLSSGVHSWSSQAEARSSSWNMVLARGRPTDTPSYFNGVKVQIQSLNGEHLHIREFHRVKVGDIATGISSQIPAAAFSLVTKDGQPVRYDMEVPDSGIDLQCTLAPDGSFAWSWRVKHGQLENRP

Compound	IC50 [1]	IC50 [2]	IC50 [3]	EC50 [4]	EC50 [5]	EC50 [6]
CC(C)(O)C#Cc1cc2c(-c3cn[nH]c3)cn(CCC(C)(C)O)c2cn1 [Compound 20]	29 nM	30 nM	187 nM	2650 nM	2260 nM	> 30000 nM
CC(C)(O)Cn1cc(-c2cn[nH]c2)c2cc(C#CC(C)(O)c3nccs3)ncc21 (stereo not shown) [Compound 15]	10 nM	43 nM	47 nM	3850 nM	> 30000 nM	> 30000 nM
CCn1c(C#N)c(-c2cn[nH]c2)c2cc(C#CC(C)(C)O)ncc21 [Compound 39]		47 nM		4610 nM	3920 nM	8000 nM
CCn1cc(-c2c[nH]nc2C#N)c2cc(C#CC(C)(C)O)ncc21 [Compound 31]	9 nM	35 nM	214 nM	2380 nM	3940 nM	4900 nM
CC(C)(O)C#Cc1cc2c(-c3cn[nH]c3)cn(S(=O)(=O)Cc3ccccc3)c2cn1 [Compound 27]		290 nM				
CC(C)CS(=O)(=O)n1cc(-c2cn[nH]c2)c2cc(C#CC(C)(C)O)ncc21 [Compound 26]		141 nM		3870 nM	3330 nM	5020 nM
CCn1cc(-c2c[nH]nc2NC)c2cc(C#CC(C)(C)O)ncc21 [Compound 37]		274 nM		5660 nM	4910 nM	> 30000 nM
CCn1cc(-c2cn[nH]c2)c2cc(C#CC(C)O)ncc21 (stereo not shown) [Compound 46]		13 nM		530 nM	343 nM	709 nM
CCn1cc(-c2cn[nH]c2)c2cc(C#CC(C)(O)c3cc(C)on3)ncc21 (stereo not shown) [Compound 48]		14 nM		621 nM	350 nM	6090 nM
CCn1cc(-c2c[nH]nc2Cl)c2cc(C#CC(C)(C)O)ncc21 [Compound 38]		13 nM		1660 nM	1320 nM	3200 nM

The next lines start with results.

IC50 [1]	IC50 [2]	IC50 [3]	Compound	EC50 [4]	EC50 [5]	EC50 [6]
	84 nM		[2H]c1n[nH]c([2H])c1-c1cn(C2CCN(C)CC2)c2c(C)nc(C#CC(O)(C([2H])([2H])[2H])C([2H])([2H])[2H])cc12 [Compound 44]	391 nM	269 nM	1540 nM
76 nM	171 nM	377 nM	CN1CC(n2cc(-c3cn[nH]c3)c3cc(C#CC(C)(C)O)ncc32)C1 [Compound 34]	3660 nM	2200 nM	> 30000 nM
88 nM	69 nM	418 nM	CC(C)(O)C#Cc1cc2c(-c3cn[nH]c3)cn(CC3COC3)c2cn1 [Compound 17]	5860 nM	11900 nM	> 30000 nM
16 nM	14 nM	71 nM	CC(C)(O)C#Cc1cc2c(-c3cn[nH]c3)cn(CCCO)c2cn1 [Compound 5]	1200 nM	791 nM	18800 nM
	38 nM		[2H]c1n[nH]c([2H])c1-c1cn(CC)c2cnc(C#CC(C)(C)O)cc12 [Compound 40]	547 nM	260 nM	1950 nM
	4 nM	632 nM	CC(C)(O)C#Cc1cc2c(-c3cn[nH]c3)cn(C3CCC(CO)CC3)c2cn1 (stereo not shown) [Compound 29]	4170 nM	2430 nM	27200 nM
9 nM		89 nM	CCn1cc(-c2cn[nH]c2)c2cc(C#CC(C)(C)O)ncc21 [Compound 9]	526 nM	553 nM	3060 nM
	63 nM		[2H]c1n[nH]c([2H])c1-c1cn([C@H]2CCN(CCC(F)(F)F)C2)c2cnc(C#CC(O)(C([2H])([2H])[2H])C([2H])([2H])[2H])cc12 [Compound 42]	2220 nM	1030 nM	2670 nM
	79 nM		CN1CCC(n2cc(-c3c[nH]nc3Cl)c3cc(C#CC(C)(C)O)ncc32)CC1 [Compound 41]	1310 nM	478 nM	6110 nM
	63 nM		CC(C)(O)C#Cc1cc2c(-c3cn[nH]c3)cn(C3CCN(CCF)CC3)c2cn1 [Compound 36]	1620 nM	565 nM	9590 nM
	44 nM		[2H]c1n[nH]c([2H])c1-c1cn(C2CCN(C3CC3)CC2)c2cnc(C#CC(O)(C([2H])([2H])[2H])C([2H])([2H])[2H])cc12 [Compound 43]	354 nM	127 nM	976 nM
	14 nM		CCn1cc(-c2cn[nH]c2)c2cc(C#CC(C)(O)C3CC3)ncc21 (single isomer, unassigned) [Compound 49]	1300 nM	861 nM	1700 nM
	23 nM		CC(C)(O)C#Cc1cc2c(-c3cn[nH]c3)cn(C3CCN(CC(F)(F)F)CC3)c2cn1 [Compound 35]	820 nM	439 nM	2670 nM
	111 nM		[2H]C([2H])([2H])C(O)(C#Cc1cc2c(-c3c[nH]nc3Cl)cn(C3CCN(C)CC3)c2c(C)n1)C([2H])([2H])[2H] [Compound 45]	415 nM	277 nM	1450 nM
	43 nM	338 nM	CC(C)(O)C#Cc1cc2c(-c3cn[nH]c3)cn(CC(F)(F)F)c2cn1 [Compound 28]	1530 nM	1020 nM	7380 nM
